In patent publication US7214669B2, “Tetracycline derivatives and methods of use thereof” (Tetragenex Pharmaceuticals, Inc., priority 2001, dated 2007):
Values joined by “and” are separate entries in the source; they are usually repeats but may differ in a detail not shown here. Equal values may be shown once.

Legend:
[1] = target: Human recombinant MMP3 (Homo sapiens, UniProt P08254); experiment: MMP3 (Stromelysin 1) inhibition, 14C casein release; type: biochemical; details: 37° C., 16 hours; read-out: MMP-3 inhibitory activity, IC50
Description: Protocol for Measuring MMP3 (Stromelysin 1) Inhibition
• 100 μg ^14C casein (7000 dpm) • 50 mM Tris HCl, pH 7.9 • 15 mM CaCl2, 0.02% azide • Human recombinant MMP3, 0.25–1.0 nM • ±tetracycline (up to 1 mM) in a total volume of 250 μl.
Incubations were at 37° C. for 16 hours. The reaction was stopped by the addition of 500 μl cold 18% TCA and standing on ice for 15 minutes. TCA precipitates were removed by centrifugation at 10,000 g for 10 minutes at 4° C. and 200 μl supernatant was taken for scintillation counting. Only data derived from within the linear part of the assay (10–60% lysis) were utilized. The percentage inhibition of MMP3 by each concentration of the candidate tetracycline was plotted to derive the IC50 value, using linear regression analysis.

[2] = target: Human recombinant MMP9 (Homo sapiens, UniProt P14780); experiment: MMP9 (Gelatinase B) inhibition, 14C gelatin release; type: biochemical; details: 37° C., 16 hours; read-out: MMP-9 inhibitory activity, IC50
Description: Protocol for Measuring MMP9 (Gelatinase B) Inhibition
MMP9 activity was determined by the release of trichloracetic acid, TCA soluble fragments from ^14C acetylated rat skin type I (Methods in Enzymology 248, 470, 1995. Biochem. J. 195, 1981)
• 100 μg ^14C labelled gelatin (collagen denatured 60° C. 20 min) • 50 mM Tris HCl pH 7.9 • 15 mM CaCl2, 0.02% azide • Human recombinant MMP9, 1.2–2 nM • ±Tetracycline (up to 1 mM) in a total volume of 250 μl.
Incubations were at 37° C. for 16 hours. The incubations were stopped by cooling the incubations and addition of 50 μl cold 90% (w/v) trichloracetic acid with careful mixing. TCA precipitation was allowed to proceed for 15 minutes at 4° C. prior to centrifugation at 10,000 g for 10 minutes at 4° C. 200 μl of the TCA supernatant was taken for the determination of radioactive content by scintillation counting (Packard Opti Phase Supermix scintillation fluid). Only data derived from within the linear part of the assay (10–70% lysis) were utilized. The percentage inhibition of MMP9 by each tetracycline concentration were plotted to derive the IC50 value.

[3] = tested on: PC-3 ML human prostate cancer cells; experiment: Membrane Invasion Culture System (MICS) chemo-invasion assay; type: cell-based; details: 24 hours, + = increased invasiveness
Description: (§1) Another objective was to analyze the effects of specific, tetracycline derived compounds on the in-vitro chemo-invasive potential of: • C8161 human melanoma cells • MDA-MB-231 human breast cancer cells • PC3 human prostate cancer cells • RPM18226 human myeloma cancer cells • Ark human myeloma cancer cells • Arp-1 human myeloma cancer cells
(§2) The Membrane Invasion Culture System (MICS) in vitro chemo-invasion assay was chosen to measure changes in the invasive potential of specific human cancer cells in response to tetracycline derived compounds. Stock solutions of each compound were hydrated in water containing 2% DMSO and pH 10.0. Upon solubilization, HCl was added to the solution to establish a pH of 7.5–8.0. This solution was then wrapped in foil and kept at 4° C. during the 24 hours of assay. Fresh compound was prepared for each assay. The in vitro chemoinvasion analyses for tumor cell invasiveness are performed using the Membrane Invasion Culture System (MICS) as previously described.
(§3) The MICS system is a thermally treated plastic manifold system consisting of two matched sets of plates containing fourteen wells, 13 mm in diameter. Interposed between these plates was a polycarbonate filter containing 10 μm pores and coated with a defined matrix composed of human laminin/collagen IV/gelatin that formed a 35 μm thick barrier between the top and bottom sections of the wells in MICS. Prior to placing this barrier in place, the lower wells were filled with serum-free RPMI culture medium made 50% in conditioned medium obtained from 2-day-old cultures of human fibroblasts which had been cleared of cells and cellular debris by either centrifugation, or filtering through a 0.45 μm sterile filter. The barrier was then placed on the lower wells and fresh serum-free medium added to the upper wells after assembly of the system. Fifty thousand tumor cells were then added to the wells either in the presence of the compound, or the DMSO vehicle (the controls). Of the 12 assay wells on each manifold, 3 randomized wells acted as controls, 3 wells received 1 μg/ml of compound, 3 received 10 μg/ml and 3 received 25 μg/ml. After 24 hours, cells and media were removed from the lower wells and replaced by phosphate buffered saline plus 2 mM EDTA. This solution was used to remove all cells from the lower well, and this wash was added to the recovered cells plus medium from the same well. These samples were then collected onto a polylysine containing polycarbonate membrane containing 3 μm pores using a Dot-Blot manifold system. These collection filters were then fixed in methanol, and stained using Wright's stain (Leukostat staining kit) in situ. The filters were then mounted on microscope slides with microscope immersion oil (which reduced the light refraction from the pores) and 5 microscopic fields were counted to calculate the number of cells which invaded through the membrane over the 24 hour period. These numbers were then statistically analyzed as discussed below.

[4] = tested on: RPMI-8226 human myeloma cancer cells; experiment: as above; type: cell-based; details: 24 hours, + = increased invasiveness
Description: as §1, §2, §3

[5] = tested on: MDA-MB-231 human breast cancer cells; experiment: as above; type: cell-based; details: 24 hours, + = increased invasiveness
Description: as §1, §2, §3

[6] = target: T1, Human recombinant MMP1 (Homo sapiens, UniProt P03956); experiment: MMP1 (Collagenase-1) inhibition, 14C collagen release; type: biochemical; details: 35° C., 5 hours; read-out: MMP-1 inhibitory activity, IC50
T1 sequence (P03956 100-469): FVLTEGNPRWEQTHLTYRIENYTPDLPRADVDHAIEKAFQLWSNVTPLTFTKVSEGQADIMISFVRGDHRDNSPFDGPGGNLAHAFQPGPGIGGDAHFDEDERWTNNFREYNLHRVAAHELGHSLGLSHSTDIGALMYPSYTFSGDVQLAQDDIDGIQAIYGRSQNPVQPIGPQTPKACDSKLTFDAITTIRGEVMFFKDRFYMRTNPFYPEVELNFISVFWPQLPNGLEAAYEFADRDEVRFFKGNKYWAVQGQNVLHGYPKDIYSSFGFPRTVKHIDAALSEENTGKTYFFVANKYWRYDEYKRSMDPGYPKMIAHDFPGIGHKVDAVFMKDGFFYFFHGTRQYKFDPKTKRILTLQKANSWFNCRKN
Description: Protocol for Measuring MMP1 (Collagenase-1) Inhibition by Tetracycline Derivatives
MMP1 activity was determined by the release of soluble ^14C labelled collagen fragments from ^14C acetylated rat skin type I collagen (Methods in Enzymology 80 711, 1981).
• 100 μg ^14C labelled rat skin type I collagen (5–6000 dpm) • 50 mM Tris HCl pH 7.9 • 15 mM CaCl2 0.02% azide • Human recombinant MMP1 3–4 nM • ±Tetracycline (up to 1 mM) in a total volume of 300 μl.
Incubations were at 35° C. for 5 hours. Uncleaved collagen fibrils (which form within the first 10 minutes) were removed by centrifugation at 10,000 g, 4° C., 10 minutes. 200 μl supernatant were counted in Packard Opti Phase Supermix scintillation fluid using a scintillation counter. Only data derived from within the linear part of the assay (10–70% lysis of the collagen) were utilized. Based on percentage inhibition of the activity of MMP1 alone by a range of concentrations of each sample, the IC50 value for each tetracycline was calculated by linear regression analysis.

[7] = target: T2, MMP2 (Gelatinase A) (Homo sapiens, UniProt P08253); experiment: MMP2 (Gelatinase A) inhibition, 14C gelatin release; type: biochemical; details: 37° C., 16 hours; read-out: MMP-2 inhibitory activity, IC50
T2 sequence (P08253 110-660): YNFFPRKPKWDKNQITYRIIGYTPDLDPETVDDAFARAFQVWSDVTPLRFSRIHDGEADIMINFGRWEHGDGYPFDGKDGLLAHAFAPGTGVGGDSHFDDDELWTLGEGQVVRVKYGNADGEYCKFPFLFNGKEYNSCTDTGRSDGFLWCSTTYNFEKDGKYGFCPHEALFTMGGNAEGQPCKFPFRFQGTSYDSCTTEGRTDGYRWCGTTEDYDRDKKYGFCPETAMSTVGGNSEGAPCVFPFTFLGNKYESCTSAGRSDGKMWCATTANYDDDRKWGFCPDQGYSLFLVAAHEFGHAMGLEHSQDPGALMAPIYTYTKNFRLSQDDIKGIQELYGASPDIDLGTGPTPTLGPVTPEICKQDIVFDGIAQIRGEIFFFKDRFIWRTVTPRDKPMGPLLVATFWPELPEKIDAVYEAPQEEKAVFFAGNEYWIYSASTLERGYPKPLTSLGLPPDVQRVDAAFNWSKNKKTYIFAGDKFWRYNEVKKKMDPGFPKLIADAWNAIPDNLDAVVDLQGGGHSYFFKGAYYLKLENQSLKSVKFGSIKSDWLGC
Description: Protocol for Measuring MMP2 (Gelatinase A) Inhibition
MMP2 activity was determined by the release of trichloracetic acid, TCA, soluble fragments from ^14C acetylated rat skin type I gelatin (Methods in Enzymology 248, 470, 1995. Biochem. J. 195, 1981)
• 100 μg ^14C labelled gelatin (type I collagen denatured 60° C. 20 min) • 50 mM Tris HCl pH 7.9 • 15 mM CaCl2, 0.02% azide • Human recombinant MMP1, 0.1–0.5 nM • ±Tetracycline (up to 1 MM) in a total volume of 250 μl.
Incubations were set at 37° C. for 16 hours. The reaction was stopped by cooling the incubations and addition of 50 μl cold 90% (w/v) trichloracetic acid with careful mixing. TCA precipitation was allowed to proceed for 15 minutes at 4° C. prior to cetrifugation at 10,000 g for 10 minutes at 4° C. 200 μl of the TCA supernatant was taken for the determination of radioactive content by scintillation counting (Packard Opti Phase Supermix scintillation fluid). Only data derived from within the linear part of the assay (10–70% lysis) were utilized. The percentage inhibition of MMP2 by each tetracycline concentration was plotted to derive the IC50 value, using linear regression analysis.

[8] = target: Human recombinant MMP14 (Homo sapiens, UniProt P50281); experiment: MMP14 (MTI-MMP) inhibition, 14C collagen release; type: biochemical; details: 35° C., 15 hours; read-out: MMP-14 inhibitory activity, IC50
[9] = tested on: C8161 human melanoma cells; experiment: Membrane Invasion Culture System (MICS) chemo-invasion assay; type: cell-based; details: 24 hours, + = increased invasiveness
Description: as §1, §2, §3

Sequence of Human recombinant MMP9 (P14780 94-707): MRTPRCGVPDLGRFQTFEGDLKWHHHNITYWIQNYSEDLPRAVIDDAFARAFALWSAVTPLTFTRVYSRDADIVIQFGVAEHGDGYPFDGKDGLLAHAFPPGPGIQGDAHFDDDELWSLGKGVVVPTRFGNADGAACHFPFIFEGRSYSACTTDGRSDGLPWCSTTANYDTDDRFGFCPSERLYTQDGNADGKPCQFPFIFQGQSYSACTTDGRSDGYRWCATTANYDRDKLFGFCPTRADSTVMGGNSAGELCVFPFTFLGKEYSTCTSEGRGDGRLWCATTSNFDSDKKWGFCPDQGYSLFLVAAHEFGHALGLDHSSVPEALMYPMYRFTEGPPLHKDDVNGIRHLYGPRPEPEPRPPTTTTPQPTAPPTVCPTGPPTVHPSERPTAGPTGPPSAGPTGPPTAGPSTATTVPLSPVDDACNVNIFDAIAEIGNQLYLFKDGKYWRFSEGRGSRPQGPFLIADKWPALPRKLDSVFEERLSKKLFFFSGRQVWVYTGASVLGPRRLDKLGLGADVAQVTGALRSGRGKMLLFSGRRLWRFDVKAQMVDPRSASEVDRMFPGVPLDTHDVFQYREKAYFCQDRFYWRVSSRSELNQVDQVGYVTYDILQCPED
Sequence of Human recombinant MMP3 (P08254 100-477): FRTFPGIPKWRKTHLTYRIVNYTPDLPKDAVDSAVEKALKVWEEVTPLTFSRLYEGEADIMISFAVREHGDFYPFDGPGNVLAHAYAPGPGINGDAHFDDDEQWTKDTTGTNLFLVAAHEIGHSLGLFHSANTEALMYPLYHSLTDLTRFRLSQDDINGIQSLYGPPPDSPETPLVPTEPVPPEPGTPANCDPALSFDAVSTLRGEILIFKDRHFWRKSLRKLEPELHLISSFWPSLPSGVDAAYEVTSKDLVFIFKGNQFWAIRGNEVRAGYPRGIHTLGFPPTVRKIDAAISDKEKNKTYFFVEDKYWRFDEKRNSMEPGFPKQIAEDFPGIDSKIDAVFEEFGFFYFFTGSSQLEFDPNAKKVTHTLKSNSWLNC

Row | Structure (SMILES) | IC50 [1] [µM] | IC50 [2] [µM] | percent inhibition, PC-3 ML (Prostrate) ([3]; 1 ug/mL) | percent inhibition, PC-3 ML (Prostrate) ([3]; 10 ug/mL) | percent inhibition, PC-3 ML (Prostrate) ([3]; 25 ug/mL) | percent inhibition, RPMI-8226 (Multiple Myeloma) ([4]; 1 ug/mL) | percent inhibition, RPMI-8226 (Multiple Myeloma) ([4]; 10 ug/mL) | percent inhibition, MDA-MB-231 (Breast) ([5]; 25 ug/mL) | IC50 [6] [µM] | IC50 [7] [µM] | IC50 [8] [µM] | percent inhibition, RPMI-8226 (Multiple Myeloma) ([4]; 25 ug/mL) | percent inhibition, MDA-MB-231 (Breast) ([5]; 1 ug/mL) | percent inhibition, MDA-MB-231 (Breast) ([5]; 10 ug/mL) | percent inhibition, C8161 (Melanoma) ([9]; 1 ug/mL) | percent inhibition, C8161 (Melanoma) ([9]; 10 ug/mL) | percent inhibition, C8161 (Melanoma) ([9]; 25 ug/mL)
1 | CC(C)CN(C)c1ccc(O)c2c1C(C)C1C(=C(O)C3(O)C(=O)C(C(N)=O)=C(O)C(N(C)C)C3C1O)C2=O (stereo not shown) [Compound 27, 7-Isobutylmethylamino-6-deoxy-5-hydroxytetracycline H2SO4] | 149 | 101 | 17^B percent and 9% | 35^B percent and 56^B percent | 70% | 24^B percent and 20% | 6% and 9% | 72^B percent and 48^B percent | 498 | 963 | 92 | – | – | – | – | – | –
2 | CC(=O)OC1C2C(=C(O)C3(O)C(=O)C(C(N)=O)=C(O)C(N(C)C)C13)C(=O)c1c(O)cccc1C2C (stereo not shown) [Compound 28, 6-Deoxy-5-acetoxy-tetracycline H2SO4] | 231 | 125 | – | – | 80% and 61% | 4% and 5% | – | 54^B percent and 45^B percent | > 1000 | > 1000 | 49 | 34^B percent and 62^B percent | – | – | – | – | –
3 | CC(=O)N(CC(C)C)c1ccc(O)c2c1C(C)C1C(=C(O)C3(O)C(=O)C(C(N)=O)=C(O)C(N(C)C)C3C1O)C2=O.O=S(=O)(O)O (stereo not shown) [Compound 29, 7-Acetylisobutylamino-6-deoxy-5-hydroxytetracycline H2SO4] | 213 | 172 | – | – | 58% and 69% | – | 12% and 13% | – | 895 | 983 | 98 | – | – | – | – | – | –
4 | CC1c2ccc([N+]#N)c(O)c2C(=O)C2=C(O)C3(O)C(=O)C(C(N)=O)=C(O)CC3C(O)C21.O=S(=O)([O-])O (stereo not shown) [Compound 37, 4-Dedimethylamino-6-deoxy-5-hydroxytetracycline-9-diazonium sulfate] | 274 | 445 | 11% | 26% | 36% | 10% | 5% | 46^B percent | 279 | > 1000 | 41 | 46^B percent | +6% | 1% | +1% | 20% | 69^B percent
5 | CC1c2ccc(C(C)(C)C)c(O)c2C(=O)C2=C(O)C3(O)C(=O)C(C(N)=O)=C(O)C(N(C)C)C3C(O)C21 (stereo not shown) [Compound 39, 9-tertbutyl-6-deoxy-5-hydroxytetracycline H2SO4] | 682 | 114 | 44^B percent | 67^B percent | 69^B percent | 5% | 10% | 76^B percent | 860 | 186 | 83 | 46^B percent | 18^B percent | 29^B percent | 10% | 11% | 24%
6 | CN(C)c1ccc(O)c2c1CC1CC3CC(O)=C(C(N)=O)C(=O)C3(O)C(O)=C1C2=O (stereo not shown) [Compound 41, 4-Dedimethylamino-7-dimethylamino-6-demethyl-6-deoxy-tetracycline H2SO4] | 54 | 250 | +4% | 4% | 4% | 7% | +6% | 2% | 478 | 889 | 403 | 14% | +8% | 3% | 2% | 8% | 6%
7 | CC1c2cccc(O)c2C(=O)C2=C(O)C3(O)C(=O)C(C(N)=O)=C(O)C([N+](C)(C)C)C3C(O)C21.[I-] (stereo not shown) [Compound 46, 6-deoxy-5-hydroxytetracycline-4-Methiodide] | 42 | 59 | 20% | 16% | 27^B percent | 7% | +11% | +1% | 194 | 3800 | 90 | 12% | 20^B percent | +5% | 21% | 7% | 10%
8 | CC1c2c(N(NC(=O)OCc3ccccc3)C(=O)OCc3ccccc3)ccc(O)c2C(=O)C2=C(O)C3(O)C(=O)C(C(N)=O)=C(O)C(N(C)C)C3C(O)C21.Cl (stereo not shown) [Compound 47, 7-(1,2-benzylcarboxyhydrazine)-6-deoxy-5-hydroxy-tetracycline HCl] | 68 | 88 | 3% | 3% | 5% | 28% | 18% | 0% | 318 | 117 | 60 | 60^B percent | +17% | +16^B percent | +30% | +4% | +2%
